Test results reported in patent US10939681B2, “Tetrazolinone compound and use thereof” (SUMITOMO CHEMICAL COMPANY, LIMITED, priority 2017, dated 2021).

System: diamondback moth (Plutella xylostella)
Experiment: Control test against diamondback moth (Plutella xylostella), cabbage leaf spray
Assay type: in vivo
Conditions: 500 ppm active ingredient, sprayed on cabbage seedlings 20 mL/seedling, 2nd instar larvae, after 5 days, 25° C.
Experimental: Next, a Test Example is used to show efficacy of the Present compound against pests. In the following Test Example, the test was carried out at 25° C. The Present compound was formulated according to the process described in the Formulation Example 6 to obtain a formulation, and water containing a spreader (0.03% by volume) was added thereto to prepare a diluted solution containing 500 ppm of the active ingredient. Cabbage (Brassicae oleracea) seedlings (on the developmental stage of the second to third true leaf) were planted in a container, and said diluted solution was sprayed into the leaves of the seedlings at a ratio of 20 mL/seedling. Thereafter, the stems and leaves of the seedlings were cut out, and the leaves were placed into a container lined with a filter paper. Approximately five the 2nd instar larvae of diamondback moth (Plutella xylostella) were released into the container. After 5 days, the number of the surviving insects was examined, and the controlling value was calculated by the following equation. […] Controlling value (%)={1−(Cb×Tai)/(Cai×Tb)}×100 wherein the symbols in the equation represent the following meanings. […]

Cc1cccc(-n2nnn(C)c2=O)c1Cn1nnn(-c2cccc(C)c2COc2ccn(-c3ccc(Cl)cc3)n2)c1=O [Present compound]
Controlling value (control effects): 100%
